{
  "source": "patent US20240398885A1",
  "about": "“FULL LIGHT REPAIR” (Coty Inc., priority 2021, published 2024)",
  "key": {"[1]": {"tested_on": "normal human keratinocytes", "assay": "Comet assay with T4 endonuclease V to detect cyclobutane pyrimidine dimers (CPD) after light exposure", "format": "cell-based", "settings": "UVB and visible light; creatine included in the compositions", "protocol": "(§1) Experiments were carried out using the protocol discussed in Chamayou-Robert et al. Photodermatol Photoimmunol Photomed. 2021; 00:1-7. Briefly, experiments were performed on normal human keratinocytes. Cells were exposed to either UVB (280-315 nm), UVA (315-400 nm), visible light, blue light (400-500 nm), or infra-red (760 nm-1 mm) for a time to induce DNA damage. Cells were then treated with the compositions indicated in FIGS. 3(a), 3(b) and 4(a), 4(b) and 4(c), respectively and DNA damage was analyzed by using the comet assay (Wischermann et al. Mutat Res. 2007; 630:122-128; Jean et al. Photochem Photobiol. 2007; 74 (3): 417-423; Azqueta et al. Mutagenesis. 2013; 28:271-277; Chamayou-Robert et al. Photoderm Photoimmun. 2021; 00:1-7) with the use of specific enzymes, formamidopyrimidine DNA glycosylase (FPG) or T4 endonuclease V in order to detect oxidized DNA-bases and cyclobutane pyrimidine dimers (CPD) respectively.\n(§2) Compositions comprising creatine in an amount of 0.5% w/w, Micrococcus Lysate in an amount of 0.0005% w/w and Arabidopsis Thaliana extract in an amount of 0.0005% w/w were tested in this example."}, "[2]": {"tested_on": "normal human keratinocytes", "assay": "Comet assay with formamidopyrimidine DNA glycosylase (FPG) to detect oxidized DNA-bases after light exposure", "format": "cell-based", "settings": "UVA, IR and visible light; creatine included in the compositions", "protocol": "as §1, §2"}},
  "data": [
    {"smiles": "CN(CC(=O)O)C(=N)N", "note": "[creatine, Creatine]", "values": [
      {"measurement": "effect on the DNA repair of CPD damage induced by light", "setting": "[1]", "value": "boosting effect"},
      {"measurement": "effect on the DNA repair of oxidative DNA damage induced by light", "setting": "[2]", "value": "boosting effect"}
    ]}
  ]
}
